# Test results as given in the supplement of paper PMC10307832.
# Columns and labels:
# Assay in all cases: relative viability (nuclei count vs DMSO), 5 days (fraction); higher = more cells survive
# [1] = compound: CCN1C(=O)C2=CC(=C(N=C2N(C1=O)C3CC3)N)C(=O)N + CC(=O)Nc1cccc(-n2c(=O)n(C3CC3)c(=O)c3c(Nc4ccc(I)cc4F)n(C)c(=O)c(C)c32)c1 [Trametinib] (partner 0.02 µM)
# Procedure, shortened: (§1)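 A single step with final 0.05% Triton X-100, 1% formaldehyde and 1 ug/ml Hoechst fixed the cells and stained nuclei 5 days after treatment. Lung cancer cell lines in 1536-well plates had been treated by pin tool the day after seeding with one drug alone or a fixed anchor-drug dose plus five library-drug doses (not always all listed) in √10 steps, and nuclei were counted on 4× images. Relative viability is the ratio of nuclei in treated wells to nuclei in vehicle wells, taken as the median of duplicate plates.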
# [2] = compound: CCN1C(=O)C2=CC(=C(N=C2N(C1=O)C3CC3)N)C(=O)N + NC(=O)Nc1cc(-c2cccc(F)c2)sc1C(=O)N[C@H]1CCCNC1 [AZD7762] (partner 0.2 µM)
# Procedure, shortened: as §1
# [3] = compound: CCN1C(=O)C2=CC(=C(N=C2N(C1=O)C3CC3)N)C(=O)N + CCNC(=O)c1noc(-c2cc(C(C)C)c(O)cc2O)c1-c1ccc(CN2CCOCC2)cc1 [Luminespib] (partner 0.01 µM)
# Procedure, shortened: as §1
# [4] = compound: CCN1C(=O)C2=CC(=C(N=C2N(C1=O)C3CC3)N)C(=O)N + CC1(C)CCC(c2ccc(Cl)cc2)=C(CN2CCN(c3ccc(C(=O)NS(=O)(=O)c4ccc(N[C@H](CCN5CCOCC5)CSc5ccccc5)c(S(=O)(=O)C(F)(F)F)c4)cc3)CC2)C1 [Navitoclax] (partner 0.5 µM)
# Procedure, shortened: as §1
# [5] = compound: CCN1C(=O)C2=CC(=C(N=C2N(C1=O)C3CC3)N)C(=O)N + Nc1ncn([C@H]2C[C@H](O)[C@@H](CO)O2)c(=O)n1 [Decitabine] (partner 2 µM)
# Procedure, shortened: as §1
Cell Line,relative viability ([1]; first compound 0.253 µM),relative viability ([1]; first compound 0.8 µM),relative viability ([1]; first compound 2.53 µM),relative viability ([1]; first compound 8 µM),relative viability ([2]; first compound 0.253 µM),relative viability ([2]; first compound 0.8 µM),relative viability ([2]; first compound 2.53 µM),relative viability ([2]; first compound 8 µM),relative viability ([3]; first compound 0.253 µM),relative viability ([3]; first compound 0.8 µM),relative viability ([3]; first compound 2.53 µM),relative viability ([3]; first compound 8 µM),relative viability ([4]; first compound 0.253 µM),relative viability ([4]; first compound 0.8 µM),relative viability ([4]; first compound 2.53 µM),relative viability ([4]; first compound 8 µM),relative viability ([5]; first compound 0.253 µM),relative viability ([5]; first compound 0.8 µM),relative viability ([5]; first compound 2.53 µM),relative viability ([5]; first compound 8 µM)
HCC-827,0.525,0.538,0.537,0.544,0.165,0.193,0.25,0.207,0.77,0.588,0.459,0.866,1,1.01,0.98,0.954,0.342,0.284,0.332,0.319
HOP-62,0.312,0.376,0.333,0.416,0.727,0.566,0.617,0.899,1.03,0.899,0.926,0.945,1.08,1.11,0.969,0.924,0.242,0.218,0.161,0.184
LC-2-ad,0.918,0.865,0.845,0.871,0.866,0.771,0.853,0.834,0.926,0.938,1.12,1.11,0.416,0.45,0.462,0.518,0.765,0.735,0.681,0.777
LCLC-103H,0.741,0.663,0.705,0.662,0.76,0.83,0.768,0.838,0.916,0.956,0.958,1.12,–,–,–,–,0.723,0.699,0.753,0.702
NCI-H358,0.121,0.134,0.144,0.138,0.535,0.536,0.552,0.564,0.2,0.377,0.423,0.379,–,–,–,–,0.193,0.207,0.19,0.227
NCI-H520,0.65,0.692,0.657,0.676,–,–,–,–,0.236,0.201,0.246,0.3,1.04,1.22,1.02,1.41,0.483,0.48,0.474,0.428
NCI-H522,0.712,0.797,0.792,0.709,0.726,0.735,0.952,0.922,1.19,0.977,1.12,1.05,–,–,–,–,0.56,0.73,0.748,0.723
NCI-H650,0.994,0.929,0.905,1.04,1.14,0.781,0.999,1.3,0.66,0.821,0.712,0.78,–,–,–,–,0.331,0.325,0.329,0.283
NCI-H661,0.591,0.567,0.546,0.561,–,–,–,–,0.922,0.904,0.898,0.904,–,–,–,–,0.544,0.551,0.517,0.543
NCI-H1650,0.572,0.571,0.563,0.611,–,–,–,–,0.185,0.196,0.162,0.186,1.1,1.25,1.1,1.19,0.351,0.404,0.43,0.401
NCI-H1703,–,–,–,–,0.13,0.126,0.164,0.137,–,–,–,–,1.01,1.04,1.14,1.46,–,–,–,–
NCI-H2009,0.274,0.271,0.262,0.281,–,–,–,–,1.02,1.08,0.943,0.916,1.15,1.14,1.11,1.08,0.385,0.409,0.394,0.379
NCI-H2023,0.587,0.61,0.503,0.589,–,–,–,–,0.857,0.726,0.781,0.792,0.946,1.02,0.955,0.95,0.214,0.223,0.209,0.215
NCI-H2228,0.37,0.597,0.359,0.594,–,–,–,–,0.132,0.167,0.203,0.11,0.996,1.29,0.925,0.838,–,–,–,–
NCI-H2342,0.795,0.8,0.756,0.857,0.527,0.426,0.514,0.503,0.756,0.761,0.747,0.784,–,–,–,–,0.642,0.729,0.701,0.766
SK-LU-1,0.482,0.555,0.516,0.489,–,–,–,–,0.177,0.201,0.194,0.215,0.797,0.855,0.977,0.865,0.63,0.72,0.782,0.669
SK-MES-1,0.625,0.533,0.557,0.517,–,–,–,–,0.774,0.591,0.793,0.945,1.03,1.28,1.22,1.27,0.381,0.359,0.4,0.365
SW 1573,0.548,0.601,0.599,0.52,–,–,–,–,0.191,0.377,0.303,0.427,0.949,0.977,0.919,0.979,0.573,0.582,0.434,0.476
UMC-11,0.798,0.701,0.695,0.636,–,–,–,–,0.914,1.02,1.08,1.17,0.312,0.277,0.308,0.324,0.71,0.604,0.617,0.457
